Reference: patent US6576652B2, “Use of an angiotensin II receptor antagonist for the preparation of drugs to increase the survival rate of renal transplant patients” (Merck Sharp & Dohme (Italia) S.p.A., priority 1997, dated 2003)

Columns and labels:
conscious Dogs = experiment: Hypotensive effects before and after furosemide in conscious dogs; format: in vivo, dog; conditions: cumulative iv 0.3 to 3 mg/kg
Text: The hypotensive effects of 2-butyl-4-chloro-1-[(2′-(1H-tetrazol-5-yl)biphenyl-4-yl)methyl]-5-hydroxymethylimidazole sodium salt were compared before and after furosemide administration to conscious Dogs.

[1] = test system: bilaterally nephrectomized Lewis rats transplanted with kidney from Fisher 344 donor rat; experiment: Chronic renal allograft failure rat model, 6 month follow-up; conditions: for FSGS % (range) / Animal survival / Proteinuria / SBP: end of 6 month follow-up; for Animal survival: allograft rats; for Proteinuria / SBP: mean ±SD
Method: Transplanted rats received cyclosporine (5 mg/kg/day i.m.) for the first 10 days to prevent acute rejection, and doses of antihypertensive drugs were adjusted to maintain blood pressure within the normal range.

[2] = test system: awake rats made hypertensive by ligation of the left renal artery; experiment: Antihypertensive effects in renal hypertensive rats; format: in vivo, rat; conditions: Table 1
Method: This procedure increases blood pressure by increasing renin production with consequent elevation of All levels. Compounds are administered orally at 100 mg/kg and/or intravenously via a cannula in the jugular vein at 10 mg/kg. Arterial blood pressure is continuously measured directly through a carotid artery cannula and recorded using a pressure transducer and a polygraph. Blood pressure levels after treatment are compared to pretreatment levels to determine the antihypertensive effects of the compounds (See Table 1). Compounds listed in Table 2 were tested in the same manner as described for Table 1, except that in the test for anti hypertensive effects in renal hypertensive rats, the compounds were administered orally at 30 mg/kg and intravenously at 3 mg/kg.

CCCCc1nc(Cl)c(CO)n1Cc1ccc(-c2ccccc2-c2nnn[nH]2)cc1.[Na] [2-butyl-4-chloro-1-[(2′-(1H-tetrazol-5-yl)biphenyl-4-yl)methyl]-5-hydroxymethylimidazole sodium salt]
Effect on blood pressure (conscious Dogs; after furosemide 10 mg/kg im at 18 and 2 hours before): caused a significant decrease | Inhibition of pressor response to AII (conscious Dogs; after furosemide 10 mg/kg im): inhibited the pressor response to AII at the two higher doses | Inhibition of pressor response to AII (conscious Dogs; before furosemide, 10 min post dose): effective in inhibiting the pressor response to AII | Effect on blood pressure (conscious Dogs; normotensive conscious dogs, before furosemide, n=4): did not lower blood pressure

CCOC(=O)C1=C(C)NC(C)=C(C(=O)OCC)C1c1ccccc1/C=C/C(=O)OC(C)(C)C [Lacidipine, reference compound]
FSGS % (range) [1]: 15 (10-20) % | Animal survival [1]: 34% | Proteinuria [1]: 167 ± 26° mg/day | SBP [1]: 125 ± 7 mm HG

CCCCc1nc(Cl)c(CO)n1Cc1ccc(-c2ccccc2-c2nn[nH]n2)cc1 [Losartan, 2-n-butyl-4-chloro-5-hydroxymothyl-1-[(2′-(1H-tetrazol-5-yl)biphenil-4-yl)methyl]imidazole]
Antihypertensive Effects in Renal Hypertensive Rats Intravenous Activity ([2]; intravenous, 10 mg/kg): + (Significant decrease in blood pressure at 10, mg/kg or less) | Antihypertensive Effects in Renal Hypertensive Rats Oral Activity ([2]; oral, 100 mg/kg): + (Significant decrease in blood pressure at 100 mg/kg or less) | Protection from chronic allograft injury and long-term animal survival ([1]; at comparable level of SBP control): effectively protects animals from chronic allograft injury | FSGS % (range) [1]: 3 (0-10) % | Animal survival [1]: 100% | Proteinuria [1]: 71 ± 46 mg/day | SBP [1]: 114 ± 12 mm HG
